“And” between values parts separate entries of the source, which are not always exact repeats. Identical values can stand only once. ± gives the expanded uncertainty stated by the source.
Columns and labels:
[1] = Molar enthalpy of transition or fusion; details: Crystal; Adiabatic calorimetry

Cc1cc2ccccc2[nH]1 [2-methylindole]
Details	mass density	molar entropy [J/K/mol]	vapor or sublimation pressure
10 K, Crystal, Vacuum adiabatic calorimetry	–	0.7816 ± 0.025	–
20 K, Crystal, Vacuum adiabatic calorimetry	–	5.097 ± 0.058	–
30 K, Crystal, Vacuum adiabatic calorimetry	–	11.88 ± 0.075	–
40 K, Crystal, Vacuum adiabatic calorimetry	–	19.5 ± 0.1	–
50 K, Crystal, Vacuum adiabatic calorimetry	–	27.26 ± 0.13	–
60 K, Crystal, Vacuum adiabatic calorimetry	–	34.95 ± 0.16	–
70 K, Crystal, Vacuum adiabatic calorimetry	–	42.45 ± 0.18	–
80 K, Crystal, Vacuum adiabatic calorimetry	–	49.75 ± 0.21	–
90 K, Crystal, Vacuum adiabatic calorimetry	–	56.85 ± 0.32	–
100 K, Crystal, Vacuum adiabatic calorimetry	–	63.76 ± 0.34	–
120 K, Crystal, Vacuum adiabatic calorimetry	–	77.12 ± 0.37	–
140 K, Crystal, Vacuum adiabatic calorimetry	–	89.97 ± 0.41	–
160 K, Crystal, Vacuum adiabatic calorimetry	–	102.47 ± 0.44	–
180 K, Crystal, Vacuum adiabatic calorimetry	–	114.71 ± 0.48	–
200 K, Crystal, Vacuum adiabatic calorimetry	–	126.76 ± 0.52	–
220 K, Crystal, Vacuum adiabatic calorimetry	–	138.69 ± 0.55	–
240 K, Crystal, Vacuum adiabatic calorimetry	–	150.54 ± 0.58	–
260 K, Crystal, Vacuum adiabatic calorimetry	–	162.33 ± 0.62	–
280 K, Crystal, Vacuum adiabatic calorimetry	–	174.1 ± 0.66	–
298.15 K, Crystal, Vacuum adiabatic calorimetry	–	184.78 ± 0.69	–
298.15 K, Liquid, Vacuum adiabatic calorimetry	–	224.56 ± 0.81	–
300 K, Crystal, Vacuum adiabatic calorimetry	–	185.87 ± 0.69	–
300 K, Liquid, Vacuum adiabatic calorimetry	–	225.95 ± 0.81	–
320 K, Crystal, Vacuum adiabatic calorimetry	–	197.68 ± 0.73	–
320 K, Liquid, Vacuum adiabatic calorimetry	–	240.78 ± 0.86	–
331.97 K, Crystal, Vacuum adiabatic calorimetry	–	204.77 ± 0.75	–
331.97 K, Liquid, Vacuum adiabatic calorimetry	–	249.48 ± 0.89	–
339.98 K, Liquid, Inclined piston gauge	–	–	0.022 ± 0.0008 kPa
339.99 K, Liquid, Inclined piston gauge	–	–	0.022 ± 0.0008 kPa
340 K, Liquid, Vacuum adiabatic calorimetry	–	255.25 ± 0.91	–
349.98 K, Liquid, Inclined piston gauge	–	–	0.0439 ± 0.0008 kPa
359.98 K, Liquid, Inclined piston gauge	–	–	0.0849 ± 0.0009 kPa
360 K, Liquid, Vacuum adiabatic calorimetry	–	269.41 ± 0.95	–
369.98 K, Liquid, Inclined piston gauge	–	–	0.1565 ± 0.0009 kPa and 0.1564 ± 0.0009 kPa
379.98 K, Liquid, Inclined piston gauge	–	–	0.2769 ± 0.001 kPa
380 K, Liquid, Vacuum adiabatic calorimetry	–	283.28 ± 0.99	–
389.98 K, Liquid, Inclined piston gauge	–	–	0.4731 ± 0.0012 kPa
399.97 K, Liquid, Inclined piston gauge	–	–	0.7822 ± 0.0014 kPa
400 K, Liquid, Vacuum adiabatic calorimetry	–	296.88 ± 1	–
409.97 K, Liquid, Inclined piston gauge	–	–	1.255 ± 0.0018 kPa
419.96 K, Liquid, Inclined piston gauge	–	–	1.958 ± 0.0023 kPa
420 K, Liquid, Vacuum adiabatic calorimetry	–	310.21 ± 1.1	–
424.96 K, Liquid, Inclined piston gauge	–	–	2.423 ± 0.0027 kPa
424.97 K, Liquid, Inclined piston gauge	–	–	2.423 ± 0.0027 kPa
427.25 K, Liquid, Twin ebulliometer	–	–	2.666 ± 0.0079 kPa
429.96 K, Liquid, Inclined piston gauge	–	–	2.979 ± 0.0032 kPa
437.34 K, Liquid, Twin ebulliometer	–	–	4 ± 0.0079 kPa
440 K, Liquid, Vacuum adiabatic calorimetry	–	323.28 ± 1.1	–
444.87 K, Liquid, Twin ebulliometer	–	–	5.333 ± 0.008 kPa
456.04 K, Liquid, Twin ebulliometer	–	–	7.999 ± 0.008 kPa
460 K, Liquid, Small sample (50 mg) DSC	–	336.12 ± 7.8	–
464.4 K, Liquid, Twin ebulliometer	–	–	10.67 ± 0.008 kPa
471.16 K, Liquid, Twin ebulliometer	–	–	13.33 ± 0.008 kPa
478.17 K, Liquid, Twin ebulliometer	–	–	16.66 ± 0.009 kPa
480 K, Liquid, Small sample (50 mg) DSC	–	348.73 ± 8.1	–
483.99 K, Liquid, Twin ebulliometer	–	–	19.93 ± 0.009 kPa
491.65 K, Liquid, Twin ebulliometer	–	–	25.02 ± 0.009 kPa and 25.02 ± 0.01 kPa
499.35 K, Liquid, Twin ebulliometer	–	–	31.18 ± 0.011 kPa
500 K, Liquid, Small sample (50 mg) DSC	–	361.11 ± 8.4	–
507.08 K, Liquid, Twin ebulliometer	–	–	38.56 ± 0.012 kPa
514.86 K, Liquid, Twin ebulliometer	–	–	47.38 ± 0.014 kPa
520 K, Liquid, Small sample (50 mg) DSC	–	373.29 ± 8.7	–
522.68 K, Liquid, Twin ebulliometer	–	–	57.82 ± 0.016 kPa
530.55 K, Liquid, Twin ebulliometer	–	–	70.12 ± 0.018 kPa
538.45 K, Liquid, Twin ebulliometer	–	–	84.53 ± 0.02 kPa
540 K, Liquid, Small sample (50 mg) DSC	–	385.27 ± 9	–
546.4 K, Liquid, Twin ebulliometer	–	–	101.33 ± 0.023 kPa
554.39 K, Liquid, Twin ebulliometer	–	–	120.79 ± 0.03 kPa
560 K, Liquid, Small sample (50 mg) DSC	–	397.05 ± 9.2	–
562.43 K, Liquid, Twin ebulliometer	–	–	143.25 ± 0.03 kPa
570.5 K, Liquid, Twin ebulliometer	–	–	169.02 ± 0.04 kPa
578.62 K, Liquid, Twin ebulliometer	–	–	198.49 ± 0.04 kPa
580 K, Liquid, Small sample (50 mg) DSC	–	408.64 ± 9.5	–
586.77 K, Liquid, Twin ebulliometer	–	–	232.02 ± 0.04 kPa
594.97 K, Liquid, Twin ebulliometer	–	–	270.02 ± 0.05 kPa
600 K, Liquid, Small sample (50 mg) DSC	–	420.05 ± 9.8	–
620 K, Liquid, Small sample (50 mg) DSC	–	431.28 ± 10	–
640 K, Liquid, Small sample (50 mg) DSC	–	442.34 ± 10	–
660 K, Liquid, Small sample (50 mg) DSC	–	453.23 ± 11	–
680 K, Liquid, Small sample (50 mg) DSC	–	463.97 ± 11	–
700 K, Liquid, Small sample (50 mg) DSC	–	474.57 ± 11	–
788.8 K, Gas, DSC	176.5 ± 8.9 kg/m3	–	–
795.1 K, Liquid, DSC	470.4 ± 24 kg/m3	–	–
800.7 K, Liquid, DSC	433.9 ± 22 kg/m3	–	–
802.9 K, Liquid, DSC	399.3 ± 20 kg/m3	–	–
803 K, Gas, DSC	183.3 ± 12 kg/m3	–	–
803.6 K, Liquid, DSC	360.9 ± 18 kg/m3	–	–
807 K, Gas, DSC	238.4 ± 14 kg/m3	–	–
809.2 K, Gas, DSC	264.7 ± 29 kg/m3	–	–
809.6 K, Gas, DSC	268.7 ± 29 kg/m3 and 299.5 ± 38 kg/m3	–	–

101.33 kPa, Liquid
Details	mass density [kg/m3]
298.15 K, From volume and mass of a pressed pellet	1070 ± 43
342 K, Pycnometric method	1020 ± 20

Details	Triple point temperature [K]
Crystal, Adiabatic calorimetry	331.97 ± 0.039

Details	Molar enthalpy of transition or fusion [kcal/mol]
[1]	3.547 ± 0.00765

Source: the NIST ThermoML archive (doi:10.1016/j.jct.2018.05.029)
